In EP3502102A1, “STING INHIBITORS” (ECOLE POLYTECHNIQUE FEDERALE DE LAUSANNE (EPFL), priority 2017, dated 2019):

Molecular target: T1, RIG-I (Homo sapiens, UniProt O95786)
T1 construct: expressed in transfected cells; host or cells: HEK293T
T1 sequence (O95786 1-925): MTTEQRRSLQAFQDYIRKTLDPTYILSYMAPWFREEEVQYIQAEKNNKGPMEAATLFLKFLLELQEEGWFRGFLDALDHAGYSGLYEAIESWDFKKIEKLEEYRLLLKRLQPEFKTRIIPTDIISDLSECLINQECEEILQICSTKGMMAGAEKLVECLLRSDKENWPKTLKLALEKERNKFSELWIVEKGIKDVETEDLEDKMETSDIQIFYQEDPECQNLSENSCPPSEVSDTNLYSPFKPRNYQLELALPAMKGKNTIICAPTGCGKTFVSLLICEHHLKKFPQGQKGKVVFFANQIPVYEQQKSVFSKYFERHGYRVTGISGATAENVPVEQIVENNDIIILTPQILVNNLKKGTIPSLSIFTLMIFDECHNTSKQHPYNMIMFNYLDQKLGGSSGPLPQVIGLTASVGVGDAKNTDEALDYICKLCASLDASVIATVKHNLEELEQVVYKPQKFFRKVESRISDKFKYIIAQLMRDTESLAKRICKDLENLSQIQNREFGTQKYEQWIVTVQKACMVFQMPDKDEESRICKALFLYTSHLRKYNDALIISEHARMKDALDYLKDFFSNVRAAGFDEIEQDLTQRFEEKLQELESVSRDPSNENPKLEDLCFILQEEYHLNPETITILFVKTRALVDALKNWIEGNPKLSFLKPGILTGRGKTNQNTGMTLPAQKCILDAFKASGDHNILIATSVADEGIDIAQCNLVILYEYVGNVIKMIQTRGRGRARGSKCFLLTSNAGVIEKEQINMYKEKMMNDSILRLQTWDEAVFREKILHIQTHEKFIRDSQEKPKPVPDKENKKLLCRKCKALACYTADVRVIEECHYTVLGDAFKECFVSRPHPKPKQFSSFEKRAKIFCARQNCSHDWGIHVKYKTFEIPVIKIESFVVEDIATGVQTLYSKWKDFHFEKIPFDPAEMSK
Assay: IFN-beta luciferase reporter in HEK293T cells transfected with RIG-I (counter-screen)
Assay type: cell-based
Details: 0.01-5µM
Protocol: Reporter activity was measured 16 h after compound treatment. A nonlinear regression analysis was performed. […] Circles indicate substitutes compared to C-176. d, e, Chemical compounds from (c) were tested at 0.5 µM for inhibitory activity in HEK293T cells transfected with STING (e) or RIG-I (f) in conjunction with IFN-• luciferase reporter, respectively. b, e, f, Values of inhibitor-treated cells were normalized to DMSO-treated cells. […] Cytokine levels were normalized to DMSO-treated control cells. A nonlinear regression analysis was performed for cGAMP stimulation. b, c, BMDMs were pre-treated with C-178 (0.25 µM) and stimulated with cGAMP, cyclic di-GMP, CMA, 90mer dsDNA or LPS for 3 h. The induction of Ifnb1 mRNA levels was assessed by RT-qPCR. d, Heatmaps of RNA sequencing analysis of BMDMs treated with DMSO or CMA and with or without addition of C-178. […] Reporter activity was measured 16 h after transfection and values were normalized to DMSO-treated control cells. c, BMDMs were treated with C-178 (0.25 µM) for 1 h, washed or left untreated and after an additional hour stimulated with cGAMP. […] Flag-STING was immunoprecipitated from whole cell lysate and analysed by autoradiography. In parallel, cell lysates were analysed by immunoblotting for p-TBK1 and STING. d, HEK293T cells expressing STING were treated as indicated (C-178 (1 µM)) and stimulated with CMA for 1.5 h. […]

O=C(Nc1ccc(I)cc1)c1ccc([N+](=O)[O-])o1 [C-176, N-(4-iodophenyl)-5-nitro-2-furamide]
RIG-I-driven IFN induction: neither RIG-I nor TBK1-driven IFN induction was affected
